In the first data set the test system is peripheral lymphocytes. The experiment in a line: Evaluation of peripheral blood lymphocyte reduction. Type of data set: in vivo. The note with it: po, 6 h, rat, orally administered, six hours after the administration, read-out: ED50 (dosage required to reduce number of lymphocytes by 50%). The protocol:
Evaluation of Peripheral Blood Lymphocyte Reduction
The compound or a solvent is orally administered to a rat. 3, 6, 24, 48 or 72 hours after the administration of the compounds, blood is drawn from the rat tail. Hematological testis carried out for the whole blood sample. Using an automated analyzer (Sysmex 2000Xi), total number of peripheral lymphocytes is obtained. By having at least three animals per group, activity of the compound on the total number of peripheral lymphocytes was evaluated. Lymphocyte reduction caused by the compound administration was evaluated via comparison with an animal group which had received the solvent only. Specifically, average number of the lymphocytes for the solvent administered group was taken as 100%, and from average number of the lymphocytes for the compound administered group, control % value was calculated. Further, in view of the dosage of the compound and the dosage of the compound that is required to reduce number of lymphocytes by 50% six hours after the administration compared to the control % value was calculated as ED50.
For the compound `Cc1cc(-c2nc(-c3ccc4c(c3)CCC4NC3CC(C(=O)O)C3)no2)ccc1-c1cccc(F)c1.Cl` (centres unmarked) [Example 4], the ED50 (usually the dose at which the effect has come halfway, by size or by number of responders) was under 1 mg/kg.

On to `Cc1cc(-c2nc(-c3ccc4c(c3)CCC4NC3CC(C(=O)O)C3)no2)ccc1-c1cc(F)ccc1F.Cl` (centres unmarked) [Example 29], for which the ED50 is under 1 mg/kg.

Turning to `Cc1cc(-c2nc(-c3ccc4c(c3)CCC4NC3CC(C(=O)O)C3)no2)c(F)cc1-c1cccc(C(F)(F)F)c1C(F)(F)F.Cl` (centres unmarked) [Example 48], the median effective dose (ED50) was under 1 mg/kg.

`Cc1cc(-c2nc(-c3ccc4c(c3)CCC4NC3CC(C(=O)O)C3)no2)c(F)cc1-c1cccc(F)c1F.Cl` (centres unmarked) [Example 32]: the 50% effective dose (ED50) is under 1 mg/kg.

For the compound `Cc1cc(-c2nc(-c3ccc4c(c3)CCC4NC3CC(C(=O)O)C3)no2)ccc1-c1cccc(F)c1F.Cl` (centres unmarked) [Example 28], the ED50 was under 1 mg/kg.

For the next data set, the target named is T1, human S1P1 (Homo sapiens, UniProt P21453).
T1 construct: expressed in transfected cells
T1 sequence (P21453 whole entry): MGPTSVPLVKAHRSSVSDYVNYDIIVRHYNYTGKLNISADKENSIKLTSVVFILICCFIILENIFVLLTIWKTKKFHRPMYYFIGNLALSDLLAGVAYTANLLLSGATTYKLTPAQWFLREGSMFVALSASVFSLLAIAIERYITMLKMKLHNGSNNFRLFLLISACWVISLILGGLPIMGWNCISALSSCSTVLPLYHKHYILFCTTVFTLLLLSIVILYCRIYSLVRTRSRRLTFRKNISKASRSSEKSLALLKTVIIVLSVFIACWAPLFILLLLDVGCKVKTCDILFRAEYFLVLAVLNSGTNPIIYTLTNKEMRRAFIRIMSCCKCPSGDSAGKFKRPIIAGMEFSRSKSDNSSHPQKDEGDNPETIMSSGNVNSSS
The experiment in a line: 35S-GTPγS binding assay using a membrane prepared from CHO cells which stably express S1P1 receptor. The note with it: CHO cell membrane fraction stably expressing human S1P1, read-out: EC50 (concentration of agonist required to give 50% of its own maximum increase ratio), human S1P1. Type of data set: biochemical. The protocol:
^35S-GTPγS Binding Assay Using a Membrane Prepared from CHO Cells Which Stably Express S1P1 Receptor
Functional activation of human S1P1 by the compounds was determined based on quantification of ^35S-GTPγS binding to G protein due to the receptor activation, by using a cell membrane fraction prepared from CHO cells in which human S1P1 are stably expressed. As for human S1P1, the above described human S1P1 was used. Membrane proteins as prepared and various concentrations of sphingosine-1-phosphate or the compounds diluted in a solvent such as DMSO were incubated in a solution comprising 20 mM Tris-Cl (pH 7.5), 100 mM NaCl, 10 mM MgCl2, […] (Upstate), 0.1% BSA (fatty acid free, Sigma) and 25 pM ^35S-GTPγS (specific activity 1250 Ci/mmol) in 96 well microtiter plates. Binding was performed by incubating them for 90 minutes at room temperature, and then terminated by harvesting the membrane proteins onto multiscreeen harvest FB plates (Millipore) using Millipore multiscreen separation system. After drying the harvest plates at least for 12 hours, 25 μl of MicroScint-O (Perkin Elmer) was added to each well and radioactivity was measured using a Top Counter.
Having the value measured for the well to which a solvent has been added as a control value, the agonist activity of the compounds was determined by comparing the increase in the well to which a test compound has been added to the control value, and therefore an increase ratio for each concentration of the compounds was obtained. EC50 values were culcurated as defined to be the concentration of agonist required to give 50% of its own maximum increase ratio.
Background: GTPγS is a poorly hydrolysed GTP analogue; its binding reports G protein activation.
`Cc1cc(-c2nc(-c3ccc4c(c3)CCC4N[C@H]3C[C@H](C(=O)O)C3)no2)c(F)cc1-c1cccc(C(F)(F)F)c1F` (some centres unmarked) [Example 41]: the EC50 is under 10 nM.

`Cc1cc(-c2nc(-c3ccc4c(c3)CCC4N[C@H]3C[C@H](C(=O)O)C3)no2)ccc1-c1c(F)ccc(C)c1Cl` (some centres unmarked) [Example 43]: the EC50 is under 10 nM.

`Cc1cc(-c2nc(-c3ccc4c(c3)CCC4N[C@H]3C[C@H](C(=O)O)C3)no2)ccc1-c1c(Cl)ccc(C)c1F` (some centres unmarked) [Example 44]: the EC50 is under 10 nM.

For the compound `Cc1cc(-c2nc(-c3ccc4c(c3)CCC4N[C@H]3C[C@H](C(=O)O)C3)no2)c(F)cc1-c1cccc(F)c1` (some centres unmarked) [Example 23], the EC50 was under 10 nM.

With `Cc1cc(-c2nc(-c3ccc4c(c3)CCC4N[C@H]3C[C@H](C(=O)O)C3)no2)ccc1-c1ccccc1C#N` (some centres unmarked) [Example 59], the EC50 is under 10 nM.

As to `Cc1cc(-c2nc(-c3ccc4c(c3)CN([C@H]3C[C@H](C(=O)O)C3)C4)no2)ccc1-c1cccc(F)c1C(F)(F)F` [Example 95], the EC50 was under 10 nM.

As to `Cc1cc(-c2nc(-c3ccc4c(c3)CCC4N[C@H]3C[C@H](C(=O)O)C3)no2)ccc1-c1ccccc1OC(F)(F)F` (some centres unmarked) [Example 17], the EC50 is under 10 nM.

`Cc1cc(-c2nc(-c3ccc4c(c3)CCC4N[C@H]3C[C@H](C(=O)O)C3)no2)c(F)cc1-c1ccccc1C(F)(F)F` (some centres unmarked) [Example 30]: the EC50 was under 10 nM.

Regarding `CSc1ccccc1-c1ccc(-c2nc(-c3ccc4c(c3)CN([C@H]3C[C@H](C(=O)O)C3)C4)no2)cc1C` [Example 10], the EC50 is under 10 nM.

`Cc1cc(-c2nc(-c3ccc4c(c3)CCC4N[C@H]3C[C@H](C(=O)O)C3)no2)ccc1-c1cccc(Cl)c1C(F)(F)F` (some centres unmarked) [Example 50]: the EC50 was under 10 nM.

With `COc1cccc(-c2ccc(-c3nc(-c4ccc5c(c4)CCC5N[C@H]4C[C@H](C(=O)O)C4)no3)cc2C)c1F` (some centres unmarked) [Example 38], the EC50 is under 10 nM.

With `Cc1cc(-c2nc(-c3ccc4c(c3)CN([C@H]3C[C@H](C(=O)O)C3)C4)no2)ccc1-c1cccc(F)c1F` [Example 90], the EC50 was under 10 nM.

Regarding `Cc1cc(-c2nc(-c3ccc4c(c3)CCC4N[C@H]3C[C@H](C(=O)O)C3)no2)ccc1-c1cccc(F)c1C(F)(F)F` (some centres unmarked) [Example 39], the EC50 is under 10 nM.

In the case of `O=C(O)[C@H]1C[C@H](NC2CCc3cc(-c4noc(-c5ccc(-c6ccccc6)c(Cl)c5)n4)ccc32)C1` (some centres unmarked) [Example 62], the EC50 was under 10 nM.

On to `Cc1cc(-c2nc(-c3ccc4c(c3)CN([C@H]3C[C@H](C(=O)O)C3)C4)no2)c(F)cc1-c1ccccc1F` [Example 89], for which the EC50 is under 10 nM.

With `Cc1cc(-c2nc(-c3ccc4c(c3)CCC4N[C@H]3C[C@H](C(=O)O)C3)no2)cc(C)c1-c1ccsc1` (some centres unmarked) [Example 16], the EC50 was under 10 nM.

Take `O=C(O)[C@H]1C[C@H](N2Cc3ccc(-c4noc(-c5ccc(-c6ccccc6F)c(Cl)c5)n4)cc3C2)C1` [Example 68]: the EC50 was under 10 nM.

With `Cc1cc(-c2nc(-c3ccc4c(c3)CCC4N[C@H]3C[C@H](C(=O)O)C3)no2)ccc1-c1cccc(Cl)c1F` (some centres unmarked) [Example 34], the EC50 is under 10 nM.

A further data set has as its system rat having arthritis caused by an adjuvant. The experiment in a line: Animal model having arthritis caused by an adjuvant. The format is in vivo. The settings on record: female Lewis rat, oral once a day, twenty-one days after the administration. The protocol: Animal Model Having Arthritis Caused by an Adjuvant
Seven-week old female Lewis rat is used for the evaluation. After measuring the volume of the hind leg of the rat, M. tuberculosis H37 RA (manufactured by Difco, 500 μg/100 μl) which has been suspended in fluid paraffin as an adjuvant, is subcutaneously injected in the sole of rear left foot of the rat to prepare a rat having arthritis caused by an adjuvant. The compounds to be tested are suspended in 1% methyl cellulose solution, and force the animal to be orally administered with the suspension into the stomach by using a sonde, once a day for twenty-one days from the start of the adjuvant injection. Evaluation of arthritis is carried out by measuring volume of the foot of each animal by using a plethysmometer (manufactured by UGO BASILE). By comparing the value for the group administered with the compounds of the present invention with the solvent administered group, effect of the compounds is determined. Specifically, the swelling of the sole of the rear left foot of the solvent administered group is taken as 100%, and in view of the swelling of the animals of the compound administered group, control % values are calculated. […]
For the compound `Cc1cc(-c2nc(-c3ccc4c(c3)CCC4N[C@H]3C[C@H](C(=O)O)C3)no2)ccc1-c1ccccc1.Cl` (stereo partly drawn) [Example 1, 1,3-Trans-3-(5-(5-(2-methylbiphenyl-4-yl)-1,2,4-oxadiazol-3-yl)-2,3-dihydro-1H-inden-1-ylamino)cyclobutanecarboxylic acid hydrochloride salt], the “ED50 (dosage required to reduce the swelling of sole of the rear left foot by 50%)” value is reported as “less than 1 mg/kg”.

System in a further data set: not given
Test: not given
The settings on record: reported in Non-Patent Document 1; cited from earlier work.
For the compound `CCCCCCCCc1ccc(CCC(N)(CO)CO)cc1` [FTY720], the “side effect after administration” value is given as “bradycardia is found after administration”.

System in the next data set: not given
Test: not given
The note with it: rats, intravenous administration, Non-Patent Document 2; cited from earlier work.
For `CCCCCCCCCCCCC/C=C/[C@@H](O)[C@@H](N)COP(=O)(O)O` [sphingosine 1-phosphate], the “effect on heart rate” value is recorded as “decreases the heart rate”.

The values are drawn from patent US20090298894A1, “AMINO ACID COMPOUNDS” (Asahi Kasei Pharma Corporation, priority 2008, published 2009).
